Series [1] in a line: bleaching of a beta-carotene/linoleate model system (antioxidant activity). It is filed as biochemical. Details: % Antioxidant Activity of Monomer / % Antioxidant Activity: concentration or dose not given beside the values. The note with it: for % Antioxidant Activity: compounds of each step of the Example 8 scheme, procedure of Food Chemistry 73:285-290 (2001). Here is the method: The antioxidant activity of monomers and enzymatically-prepared polymeric antioxidants was compared by measuring the bleaching of a beta-carotene system. In the model system, beta-carotene undergoes rapid discoloration in the absence of an antioxidant. The assay and measurements were conducted according to the procedure described in Jayaprakasha, G. K., et al. Food Chemistry 73: 285-290 (2001) and Hidalgo, M. E., et al. Phytochemistry 37: 1585-1587 (1994), the contents of which are incorporated herein by reference. Briefly, beta-carotene (0.2 mg), linoleic acid (20 mg), and 200 mg of Tween-40 (polyoxyethylene sorbitan monopalmitate) were dissolved in 0.5 mL of chloroform. The chloroform was removed under vacuum and the resulting mixture was immediately diluted with 10 mL of distilled water and mixed well for 1-2 minutes. The resulting emulsion was further made up to 50 mL with oxygenated water. Aliquots (4 mL) of the emulsion were mixed with 0.2 mL of test sample (monomer or polymer) in dimethylformamide (DMF), so that there were 100 ppm of monomer or polymer present in the aliquot. A control was prepared by mixing 0.2 mL of DMF with 4 mL of the above emulsion. The samples were incubated at 50° C. The absorbance of all samples at 470 nm was taken initially (t=0) and continued up to 180 minutes at 15 minute intervals. Antioxidant activity is calculated based on the formula: Antioxidant Activity=100(1−(Ao−At)/(A^1o−A^1t)), • Ao=absorbance of the test sample at zero time, • A^1o=absorbance of the control at zero time, • At=absorbance of the test sample at time t (180 min), and • A^1t=absorbance of the control at time t (180 min).
The antioxidant activity of several other antioxidant monomer/polymer pairs were determined by the procedure described in Example 3.
The antioxidant activity of compounds formed in each step of the scheme shown above were measured according to the procedure published in Food Chemistry 73:285-290 (2001).

Series [2] can be described thus: thermogravimetric analysis (TGA). It counts as physicochemical. The note with it: thermal stability, FIG. 4.
A short description of series [3]: oil stability index of cooking oil heated to frying temperature. Here is the method:
(§1) The oils were heated to frying temperature (190° C.) and their oil stability index was measured. The oil stability index (American Oil Chemists' Society Cd 126-92) measures the amount of time before the oil begins to rapidly oxidize. A greater length of time indicates an oil with a greater antioxidant capacity, which likely corresponds to a longer potential shelf life.

Assay in series [4]: as above
As for the experimental part:
as §1
This is another data set of the same source.

The conditions of series [5]: quoted for comparison; cited from earlier work.
The subject of series [6] is Sprague-Dawley albino rats. The note with it: rat, in vivo. Here is the method:
A study was conducted based upon the standards of OECD Guidelines for Testing of Chemicals, OECD 423. Ten Sprague-Dawley albino rats were administered with 2000 mg/kg body weight poly(TBHQ) as a single dose via gastric gavage. After administration, the animals were returned to their cages and observed for signs of toxicity for up to 14 days. Body weights were determined prior to dosing and on the day of death or prior to terminal sacrifice. A second study was performed using three female rats with 500 mg/kg body weight of poly(TBHQ).

[7] abbreviates: monomer, 100 ppm, 50° C., 180 min, Antioxidant Activity=100(1−(Ao−At)/(A1o−A1t)).
Setting [8] is: monomer, procedure of Example 3.

This is an account of results in patent publication US7595074B2, “Polymeric antioxidants” (University of Massachusetts Lowell, priority 2002, dated 2009).

Where two headings read alike, the source gives them in different places.

`COc1ccc(O)cc1C(C)(C)C` [2-tert-butyl-4-hydroxyanisole]: in series [1] (setting [7]), the “Monomer Activity” value is recorded as 44.24. For the same compound, the “temperature up to which there was about 15% mass loss (TGA)” value in series [2] was “about 125 °C”.
For `OCc1cccc(O)c1` [3-hydroxybenzyl alcohol], the “Monomer Activity” value in series [1] (setting [7]) came to 1.0. Moreover, the “% Antioxidant Activity of Monomer” value in series [1] (setting [8]) is recorded as 1.0%.
The matching figures for `Oc1ccc(N=Nc2ccccc2)cc1` [4-azophenylphenol]: 5.4 and 5.4%.
For `CC(C)(C)c1cc(O)ccc1O` [TBHQ, tert-butyl-hydroquinone], the “% Antioxidant Activity” value in series [1] is listed as 6.72%. Besides, the “oil stability index (time before the oil begins to rapidly oxidize)” value (“oil stability index” for short) in series [3] (Corn oil, 190° C., equal concentration of phenol moieties) was 6.6 h; in series [4] (Canola oil, 190° C., equal concentration of phenol moieties), 10.8 h.
Consider `CC(=O)Oc1ccc(OC(C)=O)c(C(C)(C)C)c1` [b], for which the “% Antioxidant Activity” value in series [1] came out at 2.45%.
As to `CC(=O)Oc1ccc(O)cc1C(C)(C)C` [c, 4-acetyloxy-3-tert-butylphenol], the “% Antioxidant Activity” value in series [1] is 7.9%.
In the case of `Oc1ccccc1` [phenol], in series [1], the “% Antioxidant Activity of Monomer” value worked out at 2.1% and the “Monomer Activity” value is recorded as 2.1.
For `[Cl-].[Na+]` [sodium chloride], in series [5], the “oral LD50” value is recorded as “about 3000 mg/kg”.
In the case of “Poly(tert-butyl-hydroquinone) [Poly(TBHQ)]”, in series [3], the “oil stability index” value amounted to 9.0 h. In series [6], the “female rats that died prior to completion of the study” value is recorded as “Three of the five”, the “gross necropsy of surviving animals” value is reported as “None of the surviving animals showed abnormal signs”, the “necropsy finding in animals that did not survive 14 days” value was “the intestines were inflamed” and the overall toxicity result is “relatively low toxicity to rats”. Moreover, in series [6], the survival entry is on record as “survived the duration of the study”. The “oral LD50” value in series [6] (po) was 500 to 2000 mg/kg. The “oil stability index” value in series [4] stood at 19.2 h.
